Measurements published in PubChem BioAssay AID1918949 (Molecular Pharmacology Branch, DTP, NCI, 2023).
Values joined by “and” are separate entries in the source; they are usually repeats but may differ in a detail not shown here. Equal values may be shown once.

Test system: K24384-001-R-PDC complex spheroid viability
Assay: Anticancer human tumor K24384-001-R-PDC patient-derived pancreatic adenocarcinoma cell line growth inhibition
Conditions: for viability, T/C: stronger effect = lower value
Summary of the method: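 Drug combinations with the LSD1 inhibitor iadademstat tested on tumor cells co-cultured as spheroids with endothelial cells and mesenchymal stem cells. Concentrations descended in half-log increments from clinical Cmax or 10 microM.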

[1] = curve of first compound, second compound 0.1 µM
[2] = curve of first compound, second compound 0.316 µM
[3] = curve of first compound, second compound 1 µM
[4] = curve of first compound, second compound 3.16 µM
[5] = curve of first compound, second compound 10 µM
[6] = second compound 0.1 µM, first compound 0.00949 µM
[7] = second compound 0.1 µM, first compound 0.03 µM
[8] = second compound 0.1 µM, first compound 0.0949 µM
[9] = second compound 0.1 µM, first compound 0.3 µM
[10] = second compound 0.316 µM, first compound 0.00949 µM
[11] = second compound 0.316 µM, first compound 0.03 µM
[12] = second compound 0.316 µM, first compound 0.0949 µM
[13] = second compound 0.316 µM, first compound 0.3 µM
[14] = second compound 1 µM, first compound 0.00949 µM
[15] = second compound 1 µM, first compound 0.03 µM
[16] = second compound 1 µM, first compound 0.0949 µM
[17] = second compound 1 µM, first compound 0.3 µM
[18] = second compound 3.16 µM, first compound 0.00949 µM
[19] = second compound 3.16 µM, first compound 0.03 µM
[20] = second compound 3.16 µM, first compound 0.0949 µM
[21] = second compound 3.16 µM, first compound 0.3 µM
[22] = second compound 10 µM, first compound 0.00949 µM
[23] = second compound 10 µM, first compound 0.03 µM
[24] = second compound 10 µM, first compound 0.0949 µM
[25] = second compound 10 µM, first compound 0.3 µM
[26] = second compound 0.1 µM, first compound 0.0316 µM
[27] = second compound 0.1 µM, first compound 0.1 µM
[28] = second compound 0.316 µM, first compound 0.0316 µM
[29] = second compound 0.316 µM, first compound 0.1 µM
[30] = second compound 1 µM, first compound 0.0316 µM
[31] = second compound 1 µM, first compound 0.1 µM
[32] = second compound 3.16 µM, first compound 0.0316 µM
[33] = second compound 3.16 µM, first compound 0.1 µM
[34] = second compound 10 µM, first compound 0.0316 µM
[35] = second compound 10 µM, first compound 0.1 µM
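Also: spheroids exposed to agents for seven days before luminescence viability reading.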
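For viability, T/C in this document: 100% = DMSO vehicle control viability.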

CCc1c2c(nc3ccc(O)cc13)-c1cc3c(c(=O)n1C2)COC(=O)[C@]3(O)CC + NC1CC1c1ccc(-c2cccc(O)c2)cc1
IC50 [1]: < 0.949 nM | IC50 [2]: < 0.949 nM | IC50 [3]: < 0.949 nM | IC50 [4]: < 0.949 nM | IC50 [5]: < 0.949 nM | viability, T/C (second compound 0.1 µM, first compound 0.000949 µM): 38.8% | viability, T/C (second compound 0.1 µM, first compound 0.003 µM): 32.7% | viability, T/C [6]: 28.5% | viability, T/C [7]: 8.07% | viability, T/C [8]: 5.66% | viability, T/C [9]: 4.56% | viability, T/C (second compound 0.316 µM, first compound 0.000949 µM): 34.2% | viability, T/C (second compound 0.316 µM, first compound 0.003 µM): 30.9% | viability, T/C [10]: 31.5% | viability, T/C [11]: 10.9% | viability, T/C [12]: 8.49% | viability, T/C [13]: 5.16% | viability, T/C (second compound 1 µM, first compound 0.000949 µM): 36.8% | viability, T/C (second compound 1 µM, first compound 0.003 µM): 34.2% | viability, T/C [14]: 26.4% | viability, T/C [15]: 7.42% | viability, T/C [16]: 4.74% | viability, T/C [17]: 4.43% | viability, T/C (second compound 3.16 µM, first compound 0.000949 µM): 37.1% | viability, T/C (second compound 3.16 µM, first compound 0.003 µM): 33.7% | viability, T/C [18]: 25.8% | viability, T/C [19]: 7.05% | viability, T/C [20]: 4.62% | viability, T/C [21]: 4.99% | viability, T/C (second compound 10 µM, first compound 0.000949 µM): 43.4% | viability, T/C (second compound 10 µM, first compound 0.003 µM): 34.2% | viability, T/C [22]: 24% | viability, T/C [23]: 5.88% | viability, T/C [24]: 5.79% | viability, T/C [25]: 4.12%

COc1cc(C2c3cc4c(cc3C(OC3OC5COC(C)OC5C(O)C3O)C3COC(=O)C23)OCO4)cc(OC)c1O (centres undefined) + NC1CC1c1ccc(-c2cccc(O)c2)cc1
IC50 [1]: 263 nM | IC50 [2]: 199 nM | IC50 [3]: 238 nM | IC50 [4]: 275 nM | IC50 [5]: 317 nM | viability, T/C [6]: 96.9% | viability, T/C [7]: 76.4% | viability, T/C [8]: 62.4% | viability, T/C [9]: 47.8% | viability, T/C (second compound 0.1 µM, first compound 0.949 µM): 40.5% | viability, T/C (second compound 0.1 µM, first compound 3 µM): 38.2% | viability, T/C [10]: 83.1% | viability, T/C [11]: 88.7% | viability, T/C [12]: 63.4% | viability, T/C [13]: 44.2% | viability, T/C (second compound 0.316 µM, first compound 0.949 µM): 39.9% | viability, T/C (second compound 0.316 µM, first compound 3 µM): 34.5% | viability, T/C [14]: 74.7% | viability, T/C [15]: 77.5% | viability, T/C [16]: 60.5% | viability, T/C [17]: 45.6% | viability, T/C (second compound 1 µM, first compound 0.949 µM): 40.8% | viability, T/C (second compound 1 µM, first compound 3 µM): 30.2% | viability, T/C [18]: 73.5% | viability, T/C [19]: 82.1% | viability, T/C [20]: 66% | viability, T/C [21]: 47.9% | viability, T/C (second compound 3.16 µM, first compound 0.949 µM): 41.5% | viability, T/C (second compound 3.16 µM, first compound 3 µM): 32.8% | viability, T/C [22]: 90.7% | viability, T/C [23]: 84.9% | viability, T/C [24]: 62.8% | viability, T/C [25]: 53.6% | viability, T/C (second compound 10 µM, first compound 0.949 µM): 41.3% | viability, T/C (second compound 10 µM, first compound 3 µM): 42.8%

COc1cc(Nc2ncc3c(n2)-c2ccc(Cl)cc2C(c2c(F)cccc2OC)=NC3)ccc1C(=O)O
viability, T/C (compound 0.00316 µM): 106% and 74.5% | viability, T/C (compound 0.01 µM): 94.8% and 78.3% | viability, T/C (compound 0.0316 µM): 85.9% and 62.4% | viability, T/C (compound 0.1 µM): 69.7% and 63.6% | viability, T/C (compound 0.316 µM): 79.4% and 69.7% | viability, T/C (compound 1 µM): 87.7% and 70.3% | IC50 (curve of compound): > 1000 nM

O=C(c1cc(Cc2n[nH]c(=O)c3ccccc23)ccc1F)N1CCN(C(=O)C2CC2)CC1 + NC1CC1c1ccc(-c2cccc(O)c2)cc1
IC50 [1]: > 10000 nM | IC50 [2]: > 10000 nM | IC50 [3]: > 10000 nM | IC50 [4]: > 10000 nM | IC50 [5]: > 10000 nM | viability, T/C [26]: 96.3% | viability, T/C [27]: 73.9% | viability, T/C (second compound 0.1 µM, first compound 0.316 µM): 84.4% | viability, T/C (second compound 0.1 µM, first compound 1 µM): 65.8% | viability, T/C (second compound 0.1 µM, first compound 3.16 µM): 56.2% | viability, T/C (second compound 0.1 µM, first compound 10 µM): 67.4% | viability, T/C [28]: 89.8% | viability, T/C [29]: 80.5% | viability, T/C (second compound 0.316 µM, first compound 0.316 µM): 79.5% | viability, T/C (second compound 0.316 µM, first compound 1 µM): 77% | viability, T/C (second compound 0.316 µM, first compound 3.16 µM): 57.6% | viability, T/C (second compound 0.316 µM, first compound 10 µM): 66.1% | viability, T/C [30]: 78.7% | viability, T/C [31]: 73.5% | viability, T/C (second compound 1 µM, first compound 0.316 µM): 72.6% | viability, T/C (second compound 1 µM, first compound 1 µM): 81% | viability, T/C (second compound 1 µM, first compound 3.16 µM): 66.6% | viability, T/C (second compound 1 µM, first compound 10 µM): 70.8% | viability, T/C [32]: 78.7% | viability, T/C [33]: 77.3% | viability, T/C (second compound 3.16 µM, first compound 0.316 µM): 83.8% | viability, T/C (second compound 3.16 µM, first compound 1 µM): 72.2% | viability, T/C (second compound 3.16 µM, first compound 3.16 µM): 68% | viability, T/C (second compound 3.16 µM, first compound 10 µM): 59.8% | viability, T/C [34]: 86.6% | viability, T/C [35]: 81.5% | viability, T/C (second compound 10 µM, first compound 0.316 µM): 76.5% | viability, T/C (second compound 10 µM, first compound 1 µM): 87.4% | viability, T/C (second compound 10 µM, first compound 3.16 µM): 54.5% | viability, T/C (second compound 10 µM, first compound 10 µM): 62.3%

Cn1ncnc1C1c2n[nH]c(=O)c3cc(F)cc(c23)NC1c1ccc(F)cc1 (centres undefined) + NC1CCC(NC2CC2c2ccccc2)CC1
IC50 [1]: > 100 nM | IC50 [2]: > 100 nM | IC50 [3]: > 100 nM | IC50 [4]: > 100 nM | IC50 [5]: > 100 nM | viability, T/C (second compound 0.1 µM, first compound 0.000316 µM): 92.4% | viability, T/C (second compound 0.1 µM, first compound 0.001 µM): 115% | viability, T/C (second compound 0.1 µM, first compound 0.00316 µM): 81.7% | viability, T/C (second compound 0.1 µM, first compound 0.01 µM): 88.6% | viability, T/C [26]: 80% | viability, T/C [27]: 73.7% | viability, T/C (second compound 0.316 µM, first compound 0.000316 µM): 96.5% | viability, T/C (second compound 0.316 µM, first compound 0.001 µM): 92.8% | viability, T/C (second compound 0.316 µM, first compound 0.00316 µM): 104% | viability, T/C (second compound 0.316 µM, first compound 0.01 µM): 93.5% | viability, T/C [28]: 104% | viability, T/C [29]: 72.4% | viability, T/C (second compound 1 µM, first compound 0.000316 µM): 104% | viability, T/C (second compound 1 µM, first compound 0.001 µM): 100% | viability, T/C (second compound 1 µM, first compound 0.00316 µM): 89.5% | viability, T/C (second compound 1 µM, first compound 0.01 µM): 88.7% | viability, T/C [30]: 84.8% | viability, T/C [31]: 70.2% | viability, T/C (second compound 3.16 µM, first compound 0.000316 µM): 92.9% | viability, T/C (second compound 3.16 µM, first compound 0.001 µM): 95.2% | viability, T/C (second compound 3.16 µM, first compound 0.00316 µM): 94.6% | viability, T/C (second compound 3.16 µM, first compound 0.01 µM): 98.5% | viability, T/C [32]: 98.6% | viability, T/C [33]: 82.1% | viability, T/C (second compound 10 µM, first compound 0.000316 µM): 85.6% | viability, T/C (second compound 10 µM, first compound 0.001 µM): 105% | viability, T/C (second compound 10 µM, first compound 0.00316 µM): 94.7% | viability, T/C (second compound 10 µM, first compound 0.01 µM): 103% | viability, T/C [34]: 83.1% | viability, T/C [35]: 91.6%

O=C(C=Cn1cnc(-c2cc(C(F)(F)F)cc(C(F)(F)F)c2)n1)NNc1cnccn1
viability, T/C (compound 0.00316 µM): 74% and 75.6% | viability, T/C (compound 0.01 µM): 61.5% and 68% | viability, T/C (compound 0.0316 µM): 60.1% and 51.8% | viability, T/C (compound 0.1 µM): 35.2% and 28.2% | viability, T/C (compound 0.316 µM): 29.8% and 27.7% | viability, T/C (compound 1 µM): 19.4% and 19.7% | IC50 (curve of compound): 45.2 nM and 32.6 nM
